Results reported in the supplement of paper PMC8882468.

Columns and labels:
Test in all cases: CTG-3D luminescence at 96 h relative to day-0 seeding control (ratio to day 0); higher = more growth / less cytotoxicity
HCI-005.E2 = test system: HCI-005.E2 (organoid from a breast cancer xenograft with a HER2-positive history)
Description: (§1)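 PDX-derived breast cancer organoids (PDxO) in 384-well Matrigel plates, 8-point dose (0.000000625-100 uM), 96 h at 37 C; CellTiter-Glo 3D luminescence normalised to the day-0 seeding control (mean of 4 technical replicates over mean of 4 day-0 wells).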

HCI-010 = test system: HCI-010 (organoid from a breast cancer xenograft)
Description: as §1

HCI-012 = test system: HCI-012 (organoid from a breast cancer xenograft)
Description: as §1

HCI-015 = test system: HCI-015 (organoid from a triple-negative breast cancer xenograft)
Description: as §1

HCI-016 = test system: HCI-016 (organoid from a triple-negative breast cancer xenograft)
Description: as §1

HCI-025 = test system: HCI-025 (organoid from a breast cancer xenograft)
Description: as §1

MDA-MB-231 = test system: MDA-MB-231
Description: as §1

O=c1[nH]cc(F)c(=O)[nH]1 [5-fluorouracil]
CTG-3D luminescence at 96 h
Details	12.5 pM	0.00025 µM	0.005 µM	0.1 µM	1 µM	10 µM	100 µM	625 fM
HCI-005.E2	1.91	1.66	1.64	2.48	1.78	1.18	0.891	1.69
MDA-MB-231	4.33	4.19	4.49	4.31	4.4	4.03	3.35	4.34

CTG-3D luminescence at 96 h
Details	12.5 pM	0.00025 µM	0.005 µM	0.1 µM	1 µM	10 µM	100 µM	625 fM
HCI-010, days in culture: 52	2.25	2.58	2.49	2.66	2.42	2.48	1.51	2.55
HCI-010, days in culture: 65	1.67	1.68	1.87	1.73	1.83	1.73	1.18	1.66
HCI-010, days in culture: 103	3.85	3.56	3.46	3.56	3.17	2.42	2.1	3.28
HCI-012, days in culture: 143	2.31	2.12	1.8	2.12	2.07	1.71	0.413	1.96
HCI-012, days in culture: 162	2.26	2.44	1.98	2.86	1.98	2.16	0.425	2.74
HCI-012, days in culture: 201	2.32	2.31	1.56	1.69	2.12	1.21	1.08	1.85
HCI-015, days in culture: 172	2.81	2	2.42	1.81	1.61	1.12	1.03	2.72
HCI-015, days in culture: 191	2.43	1.43	1.71	0.853	1.35	0.995	0.865	1.37
HCI-015, days in culture: 218	1.85	1.55	1.83	1.77	1.51	1.54	0.999	1.81
HCI-016, days in culture: 153	3.47	1.65	2.39	2.02	2.17	1.8	1.21	3.05
HCI-016, days in culture: 172	2.33	1.93	1.51	1.52	1.52	1.1	1.12	1.92
HCI-016, days in culture: 190	1.67	1.39	1.63	1.35	1.16	1.1	1.11	1.3
HCI-016, days in culture: 199	1.49	1.49	1.44	1.47	1.68	1.21	1.18	1.73
HCI-025, days in culture: 172	2.59	1.93	3.91	1.56	1.55	0.982	0.597	2.53
HCI-025, days in culture: 209	2.04	2.56	1.99	1.52	1.7	1.25	0.569	1.37
HCI-025, days in culture: 218	1.7	1.9	1.92	1.65	1.37	1.61	0.855	1.86
